Common to all, as to experiment: NCI anticancer screen, dose series, 48 h
The subject of test [1] is A549 NSCLC.
The test system of test [2] is OVCAR-5 ovarian.
Test [3] has as its system SF-268 CNS.
Test [4] concerns PC-3 prostate.
Test [5] relates to TK-10 renal.
For test [6], the system named is K-562 leukemia.
In test [7] the test system is SF-539 CNS.
Test [8] has as its system NCI-H226 lung.
In test [9] the test system is LOX IMVI melanoma.
For test [10], the system named is MDA-MB-435.
Test [11] relates to SW-620 colon.
For test [12], the system named is HCT-15 colon.
Test [13] relates to SK-MEL-5 melanoma.
Test [14] has as its system HT29 colon.
In test [15] the test system is OVCAR-3 ovarian.

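How tested: cells in 96-well plates exposed to compound for 48 hours at five concentrations. GI50 is the concentration that inhibits growth by half. The concentration for full growth arrest is given as TGI.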

On to `O=[N+]([O-])c1ccc2nc(Nc3ccccc3)c(Nc3ccccc3)nc2c1`, for which the TGI was 2.36 µM in [1]; 6.93 µM in test [2]; 7.91 µM in test [3]; 10.3 µM in test [4]; 6.84 µM in [5]; above 100 µM in test [6]. Moreover, the TGI in test [7] turned out to be 2.98 µM; in test [8], 5.1 µM; in test [9], 3.14 µM; in test [10], 4.4 µM; in test [11], 3.46 µM; in test [12] it was 2.18 µM. The TGI amounted to 2.82 µM in [13] and 1.53 µM in test [14].
With `N#CSC#CCCC#CSC#N`, the TGI is 42 µM in test [1]; 40.3 µM in test [2]; above 100 µM in [3]; 48.3 µM in [4]; 33.1 µM in test [5]; above 100 µM in [6]. The TGI in [7] amounted to 41.2 µM; in [8], 58.2 µM; in test [9], 40.5 µM; in [15] it was 51.8 µM; in test [10] it was 56.2 µM; in test [11], 38.7 µM. Moreover, the TGI in test [12] was determined as 34.8 µM; in [13], 34.8 µM; in test [14], 45.8 µM.
On to `O=C1C(Br)=C(Br)C(=O)c2ccc(=O)ccc21`, for which the TGI is above 100 µM in test [1]; above 86.7 µM in [2]; above 77 µM in test [3]; above 100 µM in test [4]; 37.2 µM in [5]; above 61.9 µM in test [6]. In addition, the TGI in test [7] is 45 µM; in test [8], above 100 µM; in test [9], 41.2 µM; in [15], 41.8 µM; in [10], 33.3 µM; in test [11], 42.7 µM. Besides, the TGI in test [12] was 38.7 µM; in [13], 44.4 µM; in test [14] it was above 75 µM.
On to `O=C1c2ccccc2C(=O)c2c(/C=C\N3CCCCC3)ccnc21`, for which the TGI is 5.84 µM in [1]; 16.2 µM in test [2]; 39.9 µM in test [3]; 28 µM in test [4]; 34.4 µM in test [5]; 36 µM in [6]. Also, the TGI in test [7] worked out at 9.65 µM; in test [8], 8.31 µM; in test [9] it was 1.68 µM; in test [15], 9.53 µM; in [10] it was 0.289 µM; in test [11] it was 4.48 µM. Also, the TGI in test [12] amounted to 6.41 µM; in [13], 1.1 µM; in test [14], 15.1 µM.
`CC(N)/C(N)=N/O` (configuration not stated): the TGI in [1], in test [2], in test [3], in test [4], in test [5] and in test [6] was above 100 µM in each case. Besides, the TGI in test [7], in test [8], in test [9], in test [15], in [10] and in [11] was above 100 µM throughout. In addition, the TGI in test [12], in test [13] and in test [14] was above 100 µM throughout.
Consider `NC(Cc1ccccc1)C(=O)NC(Cc1ccccc1)NC(=O)C(Cc1c[nH]c2ccccc12)C(=O)O` (configuration not stated), for which the TGI in test [1], in test [2], in [3], in test [4], in test [5] and in test [7] was above 100 µM throughout. Moreover, the TGI in test [8], in test [9], in [15], in test [10], in [11] and in test [12] was above 100 µM each time. For the same molecule, the TGI in test [13] and in test [14] was above 100 µM in each case.
Regarding `CC(C)(CN1CCCCC1)C(/C=C/c1ccc(Cl)cc1)=N\NC(=O)N/N=C(/C=C/c1ccc(Cl)cc1)C(C)(C)CN1CCCCC1`, the TGI in test [1] is above 57 µM; in test [2] it was 14.7 µM; in test [3], 21.6 µM; in [4] it was 19.7 µM; in test [5], 22.5 µM; in test [6], above 100 µM. Further, the TGI is 18.9 µM in test [7]; 16.4 µM in [8]; 5.97 µM in test [9]; 10.7 µM in test [15]; 13.5 µM in test [10]; 7.67 µM in test [11]. The TGI in test [12] worked out at 7.99 µM; in test [13] it was 11.2 µM; in [14], 12.2 µM.
Regarding `CCOC(=O)c1ccc(-c2cc(C)no2)[nH]1`, the TGI in [1], in [2], in test [3], in test [4], in [5] and in test [6] was above 100 µM in each case. Also, the TGI in test [7] was above 100 µM; in test [8] it was above 100 µM; in test [9] it was above 100 µM; in [15], above 100 µM; in test [10], 29.3 µM; in test [11], above 100 µM. Besides, the TGI in test [12], in test [13] and in test [14] was above 100 µM in each case.
As to `O=C1SC(SCc2ccccc2)=NC12CC2c1ccccc1` (configuration not stated), the TGI in [1] is 81.8 µM; in test [2] it was 38.9 µM; in test [3], 70.1 µM; in [4] it was above 66.8 µM; in [5], 81.1 µM; in [6] it was 55.3 µM. Moreover, the TGI is 37.7 µM in test [7]; 52 µM in test [8]; 38 µM in test [9]; above 72.7 µM in [15]; 59.3 µM in [10]; 53.3 µM in test [11]. Moreover, the TGI was 51.4 µM in test [12], 34.1 µM in test [13] and 54 µM in test [14].
As to `CCOC(=O)c1cn2c(n1)sc1cc(F)ccc12`, the TGI in test [1], in test [2], in [3], in [4], in test [5] and in test [6] was above 100 µM throughout. Further, the TGI in test [7], in test [8], in test [9], in [15], in test [10] and in [11] was above 100 µM throughout. Also, the TGI in [12], in test [13] and in test [14] was above 100 µM throughout.
Consider `O=C1/C(=C\c2ccc(Cl)cc2Cl)Sc2scc(-c3ccc(O)c(O)c3)[n+]21`, for which the TGI is 44.1 µM in test [1]; 46.3 µM in test [2]; above 100 µM in [3]; 36.4 µM in test [4]; 38.8 µM in test [5]; 45.2 µM in test [7]. Moreover, the TGI in test [8] was 35.4 µM; in test [9], 40.8 µM; in test [15] it was 23.2 µM; in [10], 57.7 µM; in test [11] it was 29.7 µM; in [12], 30.1 µM. For the same molecule, the figures for the TGI in test [13] and in test [14] were 22.9 µM and 32.6 µM, respectively.
Regarding `Cc1ccc(S(=O)(=O)N2C3C=CC(C3)[C@@H]2C(Cl)(Cl)Cl)cc1` (some centres not stated), the TGI in [1] is above 100 µM; in test [3], 46.9 µM; in test [4] it was above 70.3 µM; in test [5], above 100 µM; in [6] it was above 100 µM; in [7], 30 µM. In addition, the TGI is 60.9 µM in [8]; 33.2 µM in test [9]; 25.3 µM in test [15]; above 88.4 µM in [10]; 44.9 µM in [11]; 62.6 µM in test [12]. For the same molecule, the TGI is 38.3 µM in test [13] and 31.8 µM in test [14]. Further, the GI50 in [6] was 28.5 µM.
Turning to `CCOC(=O)c1nnn(CCCCO)c1C(=O)OCC`, the TGI in [1], in test [3], in test [4], in [5], in test [7] and in test [8] was above 100 µM throughout. Besides, the TGI in [9], in test [10], in test [11], in test [12], in test [13] and in test [14] was above 100 µM in each case.
Consider `COc1cc(S(=O)(=O)Nc2ccc(-c3csc(N4C(=O)CSC4c4cccc(Oc5ccccc5)c4)n3)cc2)ccc1Cl` (configuration not stated), for which the TGI in [2], in test [3], in test [4], in test [6], in [7] and in test [8] was above 100 µM throughout. Also, the TGI in test [9], in test [15], in [10], in test [11], in [12] and in test [13] was above 100 µM in each case. The molecule also had a TGI in test [14] above 100 µM.
On to `CC1=NN(c2nc(N)nc(COc3ccc(N)cc3)n2)C(C)(C)C1`, for which the TGI in test [3], in test [4], in test [5], in test [6], in [7] and in test [8] was above 100 µM in each case. Besides, the TGI in test [9], in test [10], in [11], in test [12], in test [13] and in test [14] was above 100 µM in each case.
`CC(C)=C[C@H]1C[C@H](C)[C@H]2CC[C@H](C)c3c2c1c(C)c1ncoc31`: the TGI in [1] was 32.3 µM; in test [2], 29.9 µM; in [3], 46 µM; in test [4] it was 35.2 µM; in test [5], 31.7 µM; in test [6] it was above 100 µM. The TGI was 32.5 µM in test [7]; 33.2 µM in [8]; 37.7 µM in test [9]; 28.7 µM in test [15]; 38.9 µM in [10]; 36 µM in test [11]. Moreover, the values for the TGI in test [12] and in test [13] were 34.8 µM and 28.6 µM, respectively.
Take `Nc1ncc2c(n1)-c1ccccc1OC2N1CCCCC1` (configuration not stated): the TGI in test [1], in test [2], in test [3], in test [4], in test [5] and in test [7] was above 100 µM in each case. In addition, the TGI in [8], in [9], in test [15], in [10], in test [11] and in test [12] was above 100 µM each time. The TGI in test [13] and in test [14] was above 100 µM each time.
For the molecule `Cc1nn(C(=O)Cc2ccccc2)c2c1C(c1ccccc1)SC(N)=N2` (configuration not stated), the TGI in test [1], in test [3], in [4], in test [5], in test [6] and in [7] was above 100 µM in each case. In addition, the TGI in test [8], in test [9], in test [10], in [11], in test [12] and in [13] was above 100 µM throughout. In [14], the TGI was above 100 µM.
`Cc1[nH]c(=O)nc2sc(=NC3CCCCC3)n(C3CCCCC3)c(=O)c12`: the TGI in [1], in [2], in test [4], in test [5], in test [6] and in [7] was above 100 µM in each case. In addition, the TGI in test [8], in test [9], in [15], in [10], in test [11] and in test [12] was above 100 µM throughout. Moreover, the TGI in test [13] and in test [14] was above 100 µM throughout.
Turning to `C=C1c2nc3ccccc3n2C=C(c2ccc(OC)cc2)N1c1ccc(OC)cc1`, the TGI in test [1] was above 100 µM; in test [2] it was above 100 µM; in test [4], above 100 µM; in test [5], 24.3 µM; in test [6], above 100 µM; in [7], 64.8 µM. Also, the TGI was 43.1 µM in test [8]; above 100 µM in test [9]; 32.2 µM in test [15]; above 100 µM in test [10]; above 100 µM in test [11]; above 100 µM in test [12]. In addition, the TGI in test [13] was found to be 35.1 µM.

The values are drawn from PubChem BioAssay (NCI).
